Results reported in patent US20040156869A1, “2-substituted quinazolin-4-ylamine analogues” (Neurogen Corporation, priority 2002, published 2004).

Biological target: human capsaicin receptor (VR1) (Homo sapiens, UniProt Q8NER1)
Assay: Capsaicin receptor binding assay ([3H]RTX competition, VR1-transfected HEK293 membranes)

Sequence of human capsaicin receptor (VR1) (Q8NER1 whole entry): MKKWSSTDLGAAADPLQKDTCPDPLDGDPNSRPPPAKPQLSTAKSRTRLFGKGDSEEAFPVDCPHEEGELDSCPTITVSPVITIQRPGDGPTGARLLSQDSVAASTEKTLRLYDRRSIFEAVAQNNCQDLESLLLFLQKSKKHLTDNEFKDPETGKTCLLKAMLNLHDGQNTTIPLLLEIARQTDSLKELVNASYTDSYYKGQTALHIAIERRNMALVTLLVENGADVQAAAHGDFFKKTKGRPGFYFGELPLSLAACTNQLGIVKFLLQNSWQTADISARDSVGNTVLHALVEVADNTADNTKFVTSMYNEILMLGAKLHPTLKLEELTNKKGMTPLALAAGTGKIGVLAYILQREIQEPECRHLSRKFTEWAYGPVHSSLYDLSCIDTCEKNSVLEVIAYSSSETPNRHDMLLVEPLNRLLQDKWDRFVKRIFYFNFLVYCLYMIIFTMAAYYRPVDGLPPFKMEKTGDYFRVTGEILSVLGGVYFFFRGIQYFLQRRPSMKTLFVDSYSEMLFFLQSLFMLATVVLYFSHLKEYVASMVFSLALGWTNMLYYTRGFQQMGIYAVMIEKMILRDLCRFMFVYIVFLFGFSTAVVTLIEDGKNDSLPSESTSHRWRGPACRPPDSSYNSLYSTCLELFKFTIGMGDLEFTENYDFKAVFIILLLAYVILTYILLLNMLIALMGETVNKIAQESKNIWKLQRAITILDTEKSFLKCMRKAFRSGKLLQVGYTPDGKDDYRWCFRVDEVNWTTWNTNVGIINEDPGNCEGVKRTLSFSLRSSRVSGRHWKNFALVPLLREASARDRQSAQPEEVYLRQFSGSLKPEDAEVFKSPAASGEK

| Compound | Ki [nM] |
| --- | --- |
| COCc1nc(Nc2ccc(S(=O)(=O)C(F)(F)F)cc2)c2ccc(-c3ncccc3C)nc2n1 [Compound 159, [2-Methoxymethyl-7-(3-methyl-pyridin-2-yl)-pyrido[2,3-d]pyrimidin-4-yl]-(4-trifluoromethanesulfonyl-phenyl)-amine] | < 1000 |
| COCc1nc(Nc2ccc(C3(C(=O)N4C[C@@H](C)O[C@@H](C)C4)CCC3)cc2)c2ccc(-c3ncccc3C(F)(F)F)nc2n1 [Compound 160, (2,6-Dimethyl-morpholin-4-yl)-(1-{4-[2-methoxymethyl-7-(3-trifluoromethyl-pyridin-2-yl)-pyrido[2,3-d]pyrimidin-4-ylamino]-phenyl}-cyclobutyl)-methanone] | < 1000 |
| Cc1cccnc1-c1ccc2c(Nc3ccc(C(C)(C)C#N)cc3)nc(COCC(C)C)nc2n1 [Compound 161, 2-{4-[2-Isobutoxymethyl-7-(3-methyl-pyridin-2-yl)-pyrido[2,3-d]pyrimidin-4-ylamino]-phenyl}-2-methyl-propionitrile] | < 1000 |
| CC(C)COCc1nc(Nc2ccc(C(C)(C)C)cc2)c2ccc(-c3ncccc3C(F)(F)F)nc2n1 [Compound 162, (4-terr-Butyl-phenyl)-[2-isobutoxymethyl-7-(3-trifluoromethyl-pyridin-2-yl)-pyrido[2,3-d]pyrimidin-4-yl]-amine] | < 1000 |
| CC(C)COCc1nc(Nc2ccc(C(C)C)cc2)c2ccc(-c3ncccc3C(F)(F)F)nc2n1 [Compound 163, [2-Isobutoxymethyl-7-(3-trifluoromethyl-pyridin-2-yl)-pyrido[2,3-d]pyrimidin-4-yl]-(4-isopropyl-phenyl)-amine] | < 1000 |
| CC(C)COCc1nc(Nc2ccc(C(F)(F)F)cc2)c2ccc(-c3ncccc3C(F)(F)F)nc2n1 [Compound 164, [2-Isobutoxymethyl-7-(3-trifluoromethyl-pyridin-2-yl)-pyrido[2,3-d]pyrimidin-4-yl]-(4-trifluoromethyl-phenyl)-amine] | < 1000 |
| CC(C)COCc1nc(Nc2ccc(C(F)(F)F)nc2)c2ccc(-c3ncccc3C(F)(F)F)nc2n1 [Compound 165, [2-Isobutoxymethyl-7-(3-trifluoromethyl-pyridin-2-yl)-pyrido[2,3-d]pyrimidin-4-yl]-(6-trifluoromethyl-pyridin-3-yl)-amine] | < 1000 |
| Cc1cc(Nc2nc(COCC(C)C)nc3nc(-c4ncccc4C(F)(F)F)ccc23)ccc1C(F)(F)F [Compound 166, [2-Isobutoxymethyl-7-(3-trifluoromethyl-pyridin-2-yl)-pyrido[2,3-d]pyrimidin-4-yl]-(3-methyl-4-trifluoromethyl-phenyl)-amine] | < 1000 |
| CC(C)COCc1nc(Nc2ccc(C(C)(C)C#N)cc2)c2ccc(-c3ncccc3C(F)(F)F)nc2n1 [Compound 167, 2-{4-[2-Isobutoxymethyl-7-(3-trifluoromethyl-pyridin-2-yl)-pyrido[2,3-d]pyrimidin-4-ylamino]-phenyl}-2-methyl-propionitrile] | < 1000 |
| CC(C)COCc1nc(Nc2ccc(S(=O)(=O)C(F)(F)F)cc2)c2ccc(-c3ncccc3C(F)(F)F)nc2n1 [Compound 168, [2-Isobutoxymethyl-7-(3-trifluoromethyl-pyridin-2-yl)-pyrido[2,3-d]pyrimidin-4-yl]-(4-trifluoromethanesulfonyl-phenyl)-amine] | < 1000 |
| CCOC(=O)COCc1nc(Nc2ccc(C(F)(F)F)cc2)c2ccc(-c3ncccc3C(F)(F)F)cc2n1 [Compound 169, [4-(4-Trifluoromethyl-phenylamino)-7-(3-trifluoromethyl-pyridin-2-yl)-quinazolin-2-ylmethoxy]-acetic acid ethyl ester] | < 1000 |
| OCc1nc(Nc2ccc(C(F)(F)F)cc2)c2ccc(-c3ncccc3C(F)(F)F)nc2n1 [Compound 171, [4-(4-Trifluoromethyl-phenylamino)-7-(3-trifluoromethyl-pyridin-2-yl)-pyrido[2,3-d]pyrimidin-2-yl]-methanol] | < 1000 |
